The values below come from PMC11859825, “Discovery of Sphingosine Kinase Inhibition by Modified Quinoline-5,8-Diones” (Pharmaceuticals, 2025).

The inhibition is the drop in the measured response relative to a control, in per cent. Broadly, the IC50 is the concentration that gives 50% inhibition.

In one assay the target is recombinant human SphK1 (Homo sapiens, UniProt Q9NYA1). As to the kind of experiment: Fluorometric NBD-sphingosine sphingosine kinase inhibition assay, SphK1. The note with it: for IC50: IC50 against SphK1.
Another assay deals with T1, recombinant human SphK2 (Homo sapiens, UniProt Q9NRA0).
T1 sequence (Q9NRA0 1-654): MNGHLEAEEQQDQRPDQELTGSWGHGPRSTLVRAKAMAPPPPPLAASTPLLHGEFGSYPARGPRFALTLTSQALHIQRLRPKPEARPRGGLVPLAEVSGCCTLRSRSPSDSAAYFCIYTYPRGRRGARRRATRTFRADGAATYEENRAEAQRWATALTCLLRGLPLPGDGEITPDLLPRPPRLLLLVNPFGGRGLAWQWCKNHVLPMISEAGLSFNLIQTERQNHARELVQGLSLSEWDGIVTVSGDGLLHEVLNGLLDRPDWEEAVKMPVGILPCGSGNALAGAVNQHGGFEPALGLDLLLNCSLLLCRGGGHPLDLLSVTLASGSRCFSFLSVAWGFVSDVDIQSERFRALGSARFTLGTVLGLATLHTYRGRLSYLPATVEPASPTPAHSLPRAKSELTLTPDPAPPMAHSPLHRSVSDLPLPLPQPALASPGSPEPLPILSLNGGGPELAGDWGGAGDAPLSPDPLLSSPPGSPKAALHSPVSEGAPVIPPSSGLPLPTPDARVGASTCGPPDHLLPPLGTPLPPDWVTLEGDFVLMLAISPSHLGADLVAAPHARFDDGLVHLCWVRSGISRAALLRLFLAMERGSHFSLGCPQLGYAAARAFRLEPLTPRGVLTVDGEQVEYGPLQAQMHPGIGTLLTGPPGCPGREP
Description: Fluorometric NBD-sphingosine sphingosine kinase inhibition assay, SphK2. The note with it: for IC50: IC50 against SphK2.

Another assay concerns NCI-60 cell line panel. Description: NCI60 one-dose anticancer screen. It counts as cell-based, human. The note with it: 10 μM, mean growth percentage across 60 cell lines. On the procedure: A preliminary anticancer study was conducted through the National Cancer Institute 60 human tumour cell line panel (NCI60) on a representative selection of the aryl-ether quinoline-5,8-diones (Table 2). […].
One-dose study: Tested compounds were initially solubilised in DMSO, diluted into RPMI 1640 and 5% fetal bovine serum/L-glutamine and added to 96-well plates containing cell lines previously cultured for 24 h. After 48 h of incubation, the media were removed, and the cells were fixed and stained with sulforhodamine B to determine overall percent growth/total protein content. Unbound dye was removed with five washes of 1% acetic acid, and the plates were allowed to air dry. The dye was then resolubilised in Tris buffer, and the colourimetric absorbance was measured (515 nm). Growth inhibition was measured relative to the response generated from proliferating cells cultured under identical conditions for 48 h. Data from one-dose experiments pertain to the percentage growth at 10 μM [60, 61].

Setting [1] is: read-out: SphK1 inhibition, 10 μM compound.
Where [2] appears, read: read-out: Spk1 % (inhibition), Average, 10 μM, Tables S3-S5.
Where [3] appears, read: read-out: Spk1 % (inhibition), replicate A, 10 μM, Tables S3-S5.
Setting [4] is: read-out: Spk1 % (inhibition), replicate B, 10 μM, Tables S3-S5.
Where [5] appears, read: read-out: Spk2 % (inhibition), Average, 10 μM, Tables S3-S5.
Where [6] appears, read: read-out: Spk2 % (inhibition), replicate A, 10 μM, Tables S3-S5.
Where [7] appears, read: read-out: Spk2 % (inhibition), replicate B, 10 μM, Tables S3-S5.
Where [8] appears, read: read-out: SphK2 inhibition, 10 μM compound.

Several values for one entry are separate records, joined by “and”; a condition that tells them apart may be missing. Identical values can stand only once. Like-named read-outs stand apart in the source and are kept apart here.

Chain of recombinant human SphK1 (Q9NYA1 whole entry): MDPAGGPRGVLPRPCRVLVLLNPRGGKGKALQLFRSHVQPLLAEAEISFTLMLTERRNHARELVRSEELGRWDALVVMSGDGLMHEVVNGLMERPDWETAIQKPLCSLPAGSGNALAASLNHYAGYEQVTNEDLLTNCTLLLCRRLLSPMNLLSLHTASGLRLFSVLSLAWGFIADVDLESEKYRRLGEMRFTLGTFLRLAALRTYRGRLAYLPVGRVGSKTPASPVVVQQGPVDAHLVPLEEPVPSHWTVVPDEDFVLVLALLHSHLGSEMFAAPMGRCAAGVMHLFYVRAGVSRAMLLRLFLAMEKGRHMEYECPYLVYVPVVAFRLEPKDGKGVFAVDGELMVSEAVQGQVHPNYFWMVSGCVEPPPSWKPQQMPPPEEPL
Description for recombinant human SphK1: (§1) The fluorescence-based assay involved incubating the quinoline-5,8-diones with SphK isoforms individually (recombinant SphK1 and SphK2 in duplicate) [41].
(§2) The relevant enzymes and inhibitors were incubated in total reaction volumes of 100 µL with 10 µM NBD-sphingosine, 500 µM 4-deoxypyridoxine and 1 mM Mg-ATP in assay buffer (100 mM Tris/HCl (pH 7.4), 150 mM NaCl, 2 mM Na3VO4 and 10 mM NaF) for 30 min at 37 °C. A reaction mixture containing no test SphK inhibitor served as the positive control, while a reaction mixture containing no Mg-ATP served as the negative control. Post-incubation, 100 µL of potassium phosphate buffer, pH 8.5, was added to each Eppendorf, followed by 500 µL of 2:1 Chloroform/Methanol. After brief mixing with a vortex, phases were separated by centrifugation at 2000 rpm for 5 min. […] Data are expressed as mean SD from a minimum of 2 independent experiments. […] From this, the IC50 values of several test inhibitors were calculated.
Description for recombinant human SphK2: as §1, §2

Turning to `Cc1ccc2c(n1)C(=O)C(Oc1ccc(F)c(F)c1)=CC2=O` [Compound 9, 7-(3,4-Difluorophenoxy)-2-methylquinoline-5,8-dione], the inhibition at 10 µM on recombinant human SphK1 (setting [1]) was 20%; on recombinant human SphK1 (setting [2]) it was 20.3%; at recombinant human SphK1 (setting [3]) it was 14.4%; on recombinant human SphK1 (setting [4]), 25.1%; on recombinant human SphK2 (setting [5]) it was 25.2%; at recombinant human SphK2 (setting [6]) it was 27.4%. Besides, the inhibition at 10 µM at recombinant human SphK2 (setting [7]) is 23.5%.

On to `Cc1ccc2c(n1)C(=O)C(Oc1ccc(Br)cc1)=CC2=O` [Compound 12, 7-(4-Bromophenoxy)-2-methylquinoline-5,8-dione], for which, in the assay on NCI-60 cell line panel, the “Mean Growth (%)” value is reported as 90.5%.

On to `Cc1ccc2c(n1)C(=O)C(Oc1ccc(F)c(Cl)c1)=CC2=O` [Compound 10, 7-(3-Chloro-4-fluorophenoxy)-2-methylquinoline-5,8-dione], for which the inhibition at 10 µM on recombinant human SphK1 (setting [1]) was 0%; on recombinant human SphK1 (setting [2]) it was -7.2%; at recombinant human SphK1 (setting [3]), -7.7%; on recombinant human SphK1 (setting [4]), -6.5%; on recombinant human SphK2 (setting [8]), 0%; at recombinant human SphK2 (setting [5]), -1.9%. The inhibition at 10 µM at recombinant human SphK2 (setting [6]) was -4.7%; on recombinant human SphK2 (setting [7]), 0.3%.

Consider `O=Cc1ccc2c(n1)C(=O)C(Oc1ccc(F)cc1)=CC2=O` [Compound 15, 7-(4-Fluorophenoxy)-5,8-dioxo-5,8-dihydroquinoline-2-carbaldehyde], for which the inhibition at 10 µM at recombinant human SphK1 (setting [2]) was determined as 11.1%; on recombinant human SphK1 (setting [3]), 6.2%; on recombinant human SphK1 (setting [4]), 15.2%; on recombinant human SphK2 (setting [5]) it was 22.1%; on recombinant human SphK2 (setting [6]), 18.1%; on recombinant human SphK2 (setting [7]), 25.3%.

On to `COc1ccc(OC2=CC(=O)c3ccc(C)nc3C2=O)cc1` [Compound 4], for which the IC50 on recombinant human SphK1 was 30.2 µM and 30 µM; at recombinant human SphK2 it was 8.47 µM and 8 µM. Besides, the inhibition at 10 µM at recombinant human SphK1 (setting [1]) stood at 69%; at recombinant human SphK1 (setting [2]), 69.2%; on recombinant human SphK1 (setting [3]), 58.5%; at recombinant human SphK1 (setting [4]), 77.5%; on recombinant human SphK2 (setting [8]), 37%; on recombinant human SphK2 (setting [5]), 36.8%. Also, the inhibition at 10 µM on recombinant human SphK2 (setting [6]) was 37.5%; at recombinant human SphK2 (setting [7]), 36.3%. Also, at recombinant human SphK1 (single-concentration screen, SphK1 versus SphK2), the “Selectivity between SphK1 and SphK2 (in words)” value is reported as “a level of selectivity for SphK1”. The “Mean Growth (%)” value in the assay on NCI-60 cell line panel worked out at 84.4%.

On to `COc1cccc(OC2=CC(=O)c3ccc(C)nc3C2=O)c1` [Compound 5, 7-(3-Methoxyphenoxy)-2-methylquinoline-5,8-dione], for which the inhibition at 10 µM at recombinant human SphK1 (setting [2]) came to 39.9%; at recombinant human SphK1 (setting [3]), 37.8%; at recombinant human SphK1 (setting [4]), 41.5%; on recombinant human SphK2 (setting [5]), 49.7%; at recombinant human SphK2 (setting [6]), 50.1%; on recombinant human SphK2 (setting [7]) it was 49.3%. In addition, the “Mean Growth (%)” value in the assay with NCI-60 cell line panel came out at 88.5%.

Consider `COc1ccc(OC2=CC(=O)c3ccc(C=O)nc3C2=O)cc1` [Compound 13, 7-(4-Methoxyphenoxy)-5,8-dioxo-5,8-dihydroquinoline-2-carbaldehyde], for which the inhibition at 10 µM at recombinant human SphK1 (setting [2]) turned out to be 14.6%; at recombinant human SphK1 (setting [3]) it was 4.3%; at recombinant human SphK1 (setting [4]) it was 22.6%; at recombinant human SphK2 (setting [5]), 39.7%; at recombinant human SphK2 (setting [6]) it was 38.1%; on recombinant human SphK2 (setting [7]), 41.1%.

In the case of `O=C1C=C(Oc2ccc(F)cc2)C(=O)c2nc(CN3CCC[C@@H]3CO)ccc21` [Compound 21, (R)-7-(4-Fluorophenoxy)-2-((2-(hydroxymethyl)pyrrolidin-1-yl)methyl)quinoline-5,8-dione], the inhibition at 10 µM is 70% at recombinant human SphK1 (setting [1]); 69.7% on recombinant human SphK1 (setting [2]); 62% at recombinant human SphK1 (setting [3]); 75.8% at recombinant human SphK1 (setting [4]); 43% on recombinant human SphK2 (setting [8]); 43.2% on recombinant human SphK2 (setting [5]). Further, the inhibition at 10 µM on recombinant human SphK2 (setting [7]) was 43.4%.

Regarding `COc1ccc(OC2=CC(=O)c3ccc(CN4CCC[C@@H]4CO)nc3C2=O)cc1` [Compound 20, (R)-2-((2-(Hydroxymethyl)pyrrolidin-1-yl)methyl)-7-(4-methoxyphenoxy)quinoline-5,8-dione], the IC50 at recombinant human SphK1 was 42.3 µM and 42 µM; on recombinant human SphK2, 13.2 µM and 13 µM. Also, the inhibition at 10 µM was 63% on recombinant human SphK1 (setting [1]); 63.1% at recombinant human SphK1 (setting [2]); 61.7% at recombinant human SphK1 (setting [3]); 64.3% on recombinant human SphK1 (setting [4]); 82% at recombinant human SphK2 (setting [8]); 81.6% on recombinant human SphK2 (setting [5]). The inhibition at 10 µM was determined as 81.2% on recombinant human SphK2 (setting [6]) and 81.9% on recombinant human SphK2 (setting [7]).

Regarding `COc1cccc(OC2=CC(=O)c3ccc(C=O)nc3C2=O)c1` [Compound 14, 7-(3-Methoxyphenoxy)-5,8-dioxo-5,8-dihydroquinoline-2-carbaldehyde], the inhibition at 10 µM at recombinant human SphK1 (setting [2]) was -6.7%; at recombinant human SphK1 (setting [3]), -8.6%; at recombinant human SphK1 (setting [4]), -4.9%; on recombinant human SphK2 (setting [5]) it was 0.4%; at recombinant human SphK2 (setting [6]) it was -1.7%; on recombinant human SphK2 (setting [7]) it was 2%.

`Cc1ccc2c(n1)C(=O)C(Oc1ccc(F)cc1)=CC2=O` [Compound 6, 7-(4-Fluorophenoxy)-2-methylquinoline-5,8-dione]: the inhibition at 10 µM was at least 54% on recombinant human SphK1 (setting [1]); 54.2% on recombinant human SphK1 (setting [2]); 53.4% on recombinant human SphK1 (setting [3]); 54.8% on recombinant human SphK1 (setting [4]); at least 56% at recombinant human SphK2 (setting [8]); 59.6% at recombinant human SphK2 (setting [5]). Also, the inhibition at 10 µM on recombinant human SphK2 (setting [6]) was 58.6%; at recombinant human SphK2 (setting [7]), 60.4%. Also, the “Mean Growth (%)” value with NCI-60 cell line panel came out at 88.2%.

As for `Cc1ccc2c(n1)C(=O)C(Oc1ccc(C#N)cc1)=CC2=O` [Compound 7, 2-Methyl-7-(4-(cyano)phenoxy)quinoline-5,8-dione], the inhibition at 10 µM at recombinant human SphK1 (setting [1]) was at least 54%; at recombinant human SphK1 (setting [2]), 54.7%; on recombinant human SphK1 (setting [3]), 54.1%; at recombinant human SphK1 (setting [4]), 55.2%; on recombinant human SphK2 (setting [8]), at least 56%; at recombinant human SphK2 (setting [5]), 55.6%. Besides, the inhibition at 10 µM on recombinant human SphK2 (setting [6]) came to 53.6%; at recombinant human SphK2 (setting [7]), 57.2%. In the assay with NCI-60 cell line panel, the “Mean Growth (%)” value is 97.3%.

Take `O=Cc1ccc2c(n1)C(=O)C(Oc1ccc(Br)cc1)=CC2=O` [Compound 19, 7-(4-Bromophenoxy)-5,8-dioxo-5,8-dihydroquinoline-2-carbaldehyde]: the inhibition at 10 µM at recombinant human SphK1 (setting [2]) is -0.9%; at recombinant human SphK1 (setting [3]), -4.1%; on recombinant human SphK1 (setting [4]) it was 1.8%; on recombinant human SphK2 (setting [5]) it was 3.2%; at recombinant human SphK2 (setting [6]), 6.8%; on recombinant human SphK2 (setting [7]), 0.3%.

As for `Cc1ccc2c(n1)C(=O)C(Oc1ccc(Cl)c(Cl)c1)=CC2=O` [Compound 8, 7-(3,4-Dichlorophenoxy)-2-methylquinoline-5,8-dione], the inhibition at 10 µM was 26% at recombinant human SphK1 (setting [1]); 25.3% on recombinant human SphK1 (setting [2]); 17% on recombinant human SphK1 (setting [3]); 32.1% on recombinant human SphK1 (setting [4]); 37.8% on recombinant human SphK2 (setting [5]); 36% at recombinant human SphK2 (setting [6]). In addition, the inhibition at 10 µM at recombinant human SphK2 (setting [7]) was found to be 39.2%.

For the molecule `Cc1ccc2c(n1)C(=O)C(Oc1ccc(CCO)cc1)=CC2=O` [Compound 11, 7-(4-(2-Hydroxyethyl)phenoxy)-2-methylquinoline-5,8-dione], the inhibition at 10 µM amounted to 19% at recombinant human SphK1 (setting [2]); 17.6% at recombinant human SphK1 (setting [3]); 20.1% on recombinant human SphK1 (setting [4]); 33.1% at recombinant human SphK2 (setting [5]); 31.4% at recombinant human SphK2 (setting [6]); 34.5% on recombinant human SphK2 (setting [7]).

In the case of `O=Cc1ccc2c(n1)C(=O)C(Oc1ccc(F)c(F)c1)=CC2=O` [Compound 18, 7-(3,4-Difluorophenoxy)-5,8-dioxo-5,8-dihydroquinoline-2-carbaldehyde], the inhibition at 10 µM at recombinant human SphK1 (setting [2]) is -22.7%; on recombinant human SphK1 (setting [3]), -26.7%; on recombinant human SphK1 (setting [4]), -19.2%; at recombinant human SphK2 (setting [5]) it was -16.4%; at recombinant human SphK2 (setting [6]), -19.8%; at recombinant human SphK2 (setting [7]), -13.7%.
